Tests used:
MS1 mesothelioma cells = assay: Proliferation assay (tetrazolium conversion) in MS1 cells; format: cell-based, human; settings: three days
Protocol: Alimta® (MTA) was supplied by Eli Lilly (Indianapolis, Ind.). Alimta® was diluted in sterile physiological solution at a concentration of 10 mg/ml. The stock was divided into aliquots, stored at −80° C., and diluted in culture medium before each experiment. Wnt2 antibody was stored at 4° C. and used as previously described. Cell proliferation was determined by measuring metabolic activity of tetrazolium conversion (Cell Titer 96 assay, Promega, Madison, Wis.). Briefly, 5,000 cells were plated per well in a 96-well plate and culture medium containing increasing concentrations of both drugs was added. Plates were incubated at 37° C. for 72 hours in a CO2 incubator. Then a solubilization/stop solution was added and the absorbance was recorded with a […] at a wavelength of 570 nm. Each experiment was repeated at least 3 times in triplicate.
The effects of the anti-Wnt2 monoclonal antibody on cell proliferation were assessed and compared with the effects of Alimta®. Alimta® (LY231514, MTA, pemetrexed) is a novel multifunctional antifolate antimetabolite (Hanauske Lung Cancer 45 Suppl 1:S121-4 (2004)). […] Alimta® is now considered a standard in the treatment of surgically non-amenable mesothelioma. […] Three days later the cell proliferation was assessed by measuring the metabolic activity of cellular enzyme (here the tetrazolium conversion).

JNK = JNK activity; format: cell-based; settings: inhibition of Dvl by blocking CK-2 activity
Description: Through frizzled receptor and dishevelled protein, Wnt signal activates two distinct pathways: the canonical pathway (i.e., β catenin pathway) and the JNK pathway. Dishevelled protein has three highly conserved domains, DIX, PDZ, and DEP. Among them, the DIX and PDZ domains are necessary for the canonical signaling pathway while the DEP domain is important for the activation of JNK pathway. […] Most likely, the activation of JNK after anti-Wnt antibody treatment is through Dvl.

A549, LOX and FEMX = assay: Specificity control with blocking peptide (apoptosis by flow cytometry); format: cell-based, human; settings: 300 μg/ml for 72 hrs, alone
Description: Cells were harvested by trypsinization and processed for determination of cell surface annexin-V and propodium iodide (PI) contents, according to the manufacture's protocol (Annexin V FITC Apoptosis Detection Kit (Oncogene, Cambridge, Mass.); Apotarget (BioSource International)). With the use of Annexin-V-PI double staining regime, three populations of cells are distinguishable in two color flow cytometry: (a) non-apoptotic cells: annexin-V and PI negative; (b) early apoptotic cells with exposed phosphatidylserine but intact cell membranes bound to Annexin V-FITC but excluded propidium iodide; and (c) cells in necrotic or late apoptotic stages were labeled with both Annexin V-FITC and propidium iodide. Then stained cells were immediately analyzed by flow cytometry (FACScan; Decton Dickinson, Franklin Lake, N.J.). TUNEL staining of tumor tissue samples harvested from in vivo experiment was performed using ApopTag Peroxidase In Situ Oligo Ligation Apoptosis Detection Kit (Chemicon International, Temecula, Calif.) according to the manufacturer's protocol.
As a specificity control, induction of apoptosis was examined by using monoclonal Wnt2 antibody blocked by overnight pre-incubation with blocking peptide (30-fold over the antibody) in A549, LOX and FEMX. […] Same dose of blocking peptide (300 μg/ml for 72 hrs) alone had no effect on cell viability.

[1] = tested on: hepatoma cell lines HepG2 and Hep3B; assay: Cytotoxic effects in hepatoma cell lines; format: cell-based; settings: data not shown

For `Nc1nc2[nH]cc(CCc3ccc(C(=O)N[C@@H](CCC(=O)O)C(=O)O)cc3)c2c(=O)[nH]1` [Alimta®, pemetrexed], the “decrease in cell proliferation” value (MS1 mesothelioma cells; 1 μg/ml) was “about 41.9%” and the “decrease in cell proliferation” value (MS1 mesothelioma cells; 10 μg/ml) was “about 42.9%”.

With `O=c1cc(-c2ccc(O)cc2)oc2cc(O)cc(O)c12` [Apigenin, reference compound] the JNK activity (JNK) was “increased JNK activity”.

“blocking peptide: peptide pre-incubated with the anti-Wnt2 antibody (30-fold over the antibody) to block it (SSQRQLCHRHPDVMR; UniProt P09544 49-63, looked up, fragment) [reference compound]” was tested, and the cell viability (A549, LOX and FEMX) was “no effect”.

B1: anti-Wnt2 monoclonal antibody: mouse monoclonal IgG1 raised against residues 49-63 of human Wnt2; 17F7.G7 was used in the experiments described (protein)
chain: SWWYMRATGGSSRVMCDNVPGLVSSQRQLCHRHPDVMRAISQGVAEWTAECQHQFRQHRWNCNTLDRDHSLFGRVLLRSSRESAFVYAISSAGVVFAITRACSQGEVKSCSCDPKKMGSAKDSKGIFDWGGCSDNIDYGIKFARAFVDAKERKGKDARALMNLHNNRAGRKAVKRFLKQECKCHGVSGSCTLRTCWLAMADFRKTGDYLWRKYNGAIQVVMNQDGTGFTVANERFKKPTKNDLVYFENSPDYCIRDREAGSLGTAGRVCNLTSRGMDSCEVMCCGRGYDTSHVTRMTKCGCKFHWCCAVRCQDCLEALDVHTCKAPKNADWTTAT
For B1, the cytotoxic effects [1] was “cytotoxic effects”.

Reference: patent US20060040883A1, “Methods for treating cancer using anti-Wnt2 monoclonal antibodies and siRNA” (The Regents of the University of California, priority 2004, published 2006)
